{"source": "patent US20200129533A1", "about": "“PHARMACEUTICAL NANOSUSPENSION FOR THE THERAPY OF HIV INFECTION” (priority 2017, published 2020)", "type_in_all_cases": "cell-based", "key": {"[1]": {"tested_on": "HIV-1 HXB2 strain", "experiment": "Inhibition of HIV-1 HXB2 (wild-type) replication in MT-4 cell line", "experimental": "(§1) Elsulfavirine/Elpida/VM-1500 (la) is the prodrug of the active compound VM-1500A (1b), a Non-Nucleoside Reverse Transcriptase Inhibitor (NNRTI), which efficiently prevents HIV-1 HXB2 strain replication in the MT-4 cell line. […] 0.6±0.6 nM (G190A), 1.3±0.3 nM (L100I/K103N), and 1.3±0.4 nM (K103N/Y181C)"}, "[2]": {"tested_on": "HIV-1 mutant virus V106A", "experiment": "Inhibition of replication of HIV-1 mutant virus V106A", "settings": "Human immunodeficiency virus 1, read-out: Average IC50", "experimental": "as §1"}, "[3]": {"tested_on": "HIV-1 mutant virus L100I/K103N", "experiment": "Inhibition of replication of HIV-1 mutant virus L100I/K103N", "settings": "Human immunodeficiency virus 1, read-out: Average IC50", "experimental": "as §1"}, "[4]": {"tested_on": "HIV-1 mutant virus K103N/Y181C", "experiment": "Inhibition of replication of HIV-1 mutant virus K103N/Y181C", "settings": "Human immunodeficiency virus 1, read-out: Average IC50", "experimental": "as §1"}, "[5]": {"tested_on": "HIV-1 mutant virus G190A", "experiment": "Inhibition of replication of HIV-1 mutant virus G190A", "settings": "Human immunodeficiency virus 1, read-out: Average IC50", "experimental": "as §1"}}, "note": "Like-named read-outs stand apart in the source and are kept apart here.", "data": [{"smiles": "N#Cc1cc(Cl)cc(Oc2c(Br)ccc(CC(=O)Nc3ccc(S(N)(=O)=O)cc3Cl)c2F)c1", "note": "[VM-1500A]", "values": [{"measurement": "IC50", "setting": "[1]; Human immunodeficiency virus 1, HXB2, MT4, as restated, converted to ng/ml, read-out: effective concentration (IC50)", "value": 0.74, "unit": "ng/mL"}, {"measurement": "IC50", "setting": "[1]; Human immunodeficiency virus 1, HXB2, MT4, as restated, read-out: effective concentration (IC50)", "value": 1.3, "unit": "nM"}, {"measurement": "IC50", "setting": "[1]; Human immunodeficiency virus 1, MT4, wild-type HXB2 strain, MT-4 cell line, read-out: Average IC50", "value": "1.3 ± 0.4", "unit": "nM"}, {"measurement": "IC50", "setting": "[2]", "value": "1.2 ± 0.2", "unit": "nM"}, {"measurement": "IC50", "setting": "[3]", "value": "1.3 ± 0.3", "unit": "nM"}, {"measurement": "IC50", "setting": "[4]", "value": "1.3 ± 0.4", "unit": "nM"}, {"measurement": "IC50", "setting": "[5]", "value": "0.6 ± 0.6", "unit": "nM"}]}]}
